Experimental findings from US8324133B2, “Fungicide 2-pyridyl-methylene-carboxamide derivatives” (Bayer Cropscience AG, priority 2005, dated 2012) are described below.

This data set is described as follows: logP by HPLC on reversed-phase column (C 18), EEC Directive 79/831 Annex V.A8. In kind it is physicochemical. Conditions: C 18, 40° C., 0.1% aqueous formic acid and acetonitrile gradient. The procedure:
Temperature: 40° C.; Mobile phases: 0.1% aqueous formic acid and acetonitrile; linear gradient from 10% acetonitrile to 90% acetonitrile.
Calibration was carried out using unbranched alkan-2-ones (comprising 3 to 16 carbon atoms) with known logP values (determination of the logP values by the retention times using linear interpolation between two successive alkanones).

`CCC(c1cc(C(F)(F)F)cc(Cl)n1)N(C(=O)c1c(C)nn(C)c1F)C1CC1` (centres unmarked) [Compound 47] showed a LogP of 2.95.
The figure for `O=C(c1ccno1)N(Cc1ncc(C(F)(F)F)cc1Cl)C1CC1` [Compound 71] is 3.72.
Then `Cn1cc(C(=O)N(Cc2cc(C(F)(F)F)cc(Cl)n2)C2CC2)c(C(F)F)n1` [Compound 37], with 3.1; and `Cc1ncoc1C(=O)N(Cc1ncc(C(F)(F)F)cc1Cl)C1CC1` [Compound 20], with 2.85.
The figure for `O=C(c1ccnn1-c1ccccc1)N(Cc1ncc(C(F)(F)F)cc1Cl)C1CC1` [Compound 63] is 3.55; for `Cc1nc(C(F)F)c(C(=O)N(Cc2ncc(C(F)(F)F)cc2Cl)C2CC2)s1` [Compound 26] it is 3.41; for `CC(c1ncc(C(F)(F)F)cc1Cl)N(C(=O)c1cn(C)nc1C(F)(F)F)C1CC1` (centres unmarked) [Compound 42] it is 4.01.
`Cc1ncc(C(=O)N(Cc2ncc(C(F)(F)F)cc2Cl)C2CC2)s1` [Compound 29] came in with a LogP of 3.15.
Then `O=C(c1ccco1)N(Cc1ncc(C(F)(F)F)cc1Cl)C1CC1` [Compound 1], with 3.2; and `Cc1nc(C(=O)N(C2CC2)C(C)c2ncc(C(F)(F)F)cc2Cl)c(C)o1` (centres unmarked) [Compound 23], with 3.46; and `CCOc1nn(C)cc1C(=O)N(Cc1ncc(C(F)(F)F)cc1Cl)C1CC1` [Compound 60], with 2.75.
Then `Cc1nn(C)c(F)c1C(=O)N(C1CC1)C(C)c1ncc(C(F)(F)F)cc1Cl` (centres unmarked) [Compound 46], with 3.67; and `Cn1cc(C(=O)N(Cc2ncc(C(F)(F)F)cc2Cl)C2CCCC2)c(C(F)(F)F)c1` [Compound 82], with 4.15.
As to `Cc1ccoc1C(=O)N(Cc1ncc(C(F)(F)F)cc1Cl)C1CC1` [Compound 3], the LogP is on record as 3.78.
Regarding `Cn1cc(C(=O)N(Cc2ncc(C(F)(F)F)cc2Cl)C2CC2)c(I)n1` [Compound 43], the LogP is 2.82.
`Cc1nc(C(F)F)c(C(=O)N(Cc2ncc(C(F)(F)F)cc2Cl)C2CCCC2)s1` [Compound 81] displayed a LogP of 4.25.
`Cc1ncoc1C(=O)N(C1CC1)C(C)c1ncc(C(F)(F)F)cc1Cl` (centres unmarked) [Compound 21] had a LogP of 3.22.
Then `Cn1cc(C(=O)N(Cc2ncc(C(F)(F)F)cc2Cl)C2CC2)c(C(F)(F)F)n1` [Compound 41], with 3.26; and `COC(=O)C(c1ncc(C(F)(F)F)cc1Cl)N(C(=O)c1c(C)nn(C)c1F)C1CC1` (centres unmarked) [Compound 48], with 2.83.
Then `Cc1nn(C)cc1C(=O)N(Cc1ncc(C(F)(F)F)cc1Cl)C1CC1` [Compound 55], with 2.53; and `Cc1nc(C(F)(F)F)c(C(=O)N(Cc2ncc(C(F)(F)F)cc2Cl)C2CC2)s1` [Compound 25], with 3.86.
Then `Cc1cc(C(=O)N(C2CC2)C(C)c2ncc(C(F)(F)F)cc2Cl)no1` (centres unmarked) [Compound 65], with 3.63; and `Cc1nc(C(F)F)c(C(=O)N(C2CC2)C(C)c2ncc(C(F)(F)F)cc2Cl)s1` (centres unmarked) [Compound 27], with 4.34; and `Cc1occc1C(=O)N(Cc1ncc(C(F)(F)F)cc1Cl)C1CC1` [Compound 8], with 3.
The compound `Cc1nc(C(F)(F)F)c(C(=O)N(C2CC2)C(C)c2ncc(C(F)(F)F)cc2Cl)s1` (centres unmarked) [Compound 30] displayed a LogP of 4.80.
Then `Cc1nc(C(=O)N(Cc2ncc(C(F)(F)F)cc2Cl)C2CC2)c(C)o1` [Compound 22], with 3.11; and `O=C(c1ccsc1I)N(Cc1ncc(C(F)(F)F)cc1Cl)C1CC1` [Compound 15], with 4.17; and `Cc1cc(C(=O)N(C2CC2)C(C)c2ncc(C(F)(F)F)cc2Cl)c(C(F)(F)F)o1` (centres unmarked) [Compound 7], with 5.19.
The figure for `CC(c1ncc(C(F)(F)F)cc1Cl)N(C(=O)c1cn(C)nc1C(F)F)C1CC1` (centres unmarked) [Compound 35] is 3.78; for `Cc1ccoc1C(=O)N(C1CC1)C(C)c1ncc(C(F)(F)F)cc1Cl` (centres unmarked) [Compound 4] it is 4.22.
Then `Cn1ncc(C(=O)N(Cc2ncc(C(F)(F)F)cc2Cl)C2CC2)c1Cl` [Compound 57], with 3.92; and `Cc1cc(C(=O)N(Cc2ncc(C(F)(F)F)cc2Cl)C2CC(C)CC(C)(C)C2)c(C)o1` (centres unmarked) [Compound 83], with 5.9.
For the compound `Cc1noc(C)c1C(=O)N(Cc1ncc(C(F)(F)F)cc1Cl)C1CC1` [Compound 68], the LogP is reported as 3.
Then `Cn1cc(C(=O)N(Cc2ncc(C(F)(F)F)cc2Cl)C2CCCC2)c(C(F)F)n1` [Compound 79], with 3.68.
With `COc1nn(C)cc1C(=O)N(Cc1ncc(C(F)(F)F)cc1Cl)C1CC1` [Compound 39], the LogP is reported as 2.43.
The figure for `CCc1nn(C)c(F)c1C(=O)N(Cc1ncc(C(F)(F)F)cc1Cl)C1CC1` [Compound 59] is 3.11; for `Cc1cc(C(=O)N(Cc2ncc(C(F)(F)F)cc2Cl)C2CC2)c(C(F)(F)F)o1` [Compound 6] it is 4.26; for `Cc1onc(-c2ccc(Cl)cc2)c1C(=O)N(Cc1ncc(C(F)(F)F)cc1Cl)C1CC1` [Compound 69] it is 4.48.
Turning to `CCn1nc(C)c(C(=O)N(Cc2ncc(C(F)(F)F)cc2Cl)C2CC2)c1F` [Compound 58], the LogP is given as 3.15.
The figure for `CC(c1ncc(C(F)(F)F)cc1Cl)N(C(=O)c1sccc1I)C1CC1` (centres unmarked) [Compound 12] is 5.09.
Then `CC(c1ncc(C(F)(F)F)cc1Cl)N(C(=O)c1ccsc1I)C1CC1` (centres unmarked) [Compound 16], with 4.95; and `COc1nn(C)cc1C(=O)N(Cc1ncc(C(F)(F)F)cc1Cl)C1CCCC1` [Compound 80], with 3.32; and `CC(c1ncc(C(F)(F)F)cc1Cl)N(C(=O)c1ccco1)C1CC1` (centres unmarked) [Compound 2], with 3.6.
The figure for `Cc1cc(C(=O)N(C2CC2)C(C)c2ncc(C(F)(F)F)cc2Cl)nn1C` (centres unmarked) [Compound 33] is 3.15; for `Cc1nn(C)cc1C(=O)N(C1CC1)C(C)c1ncc(C(F)(F)F)cc1Cl` (centres unmarked) [Compound 56] it is 2.79; for `Cc1cc(C(=O)N(Cc2ncc(C(F)(F)F)cc2Cl)C2CC2)no1` [Compound 64] it is 3.32.
In turn, `Cn1cc(C(=O)N(Cc2ncc(C(F)(F)F)cc2Cl)C2CC2)c(C(F)(F)F)c1` [Compound 17] yielded a LogP of 3.55.
